According to patent US7872067B2, “Amphiphilic polymer compositions and their use” (priority 2004, dated 2011):
≈ marks a conversion by molar mass, not a printed value.

Experiment: Solubility of active compounds in distilled water

For `Fc1ccc([C@]2(Cn3cncn3)O[C@H]2c2ccccc2Cl)cc1` (racemic) [epoxyconazole], the “Solubility in distilled water” value was 6.63 µg/mL (≈ 20.1 µM).
